Measured values from EP0311322B1, “Pyridine or pyridazine derivatives as cardio-protective agents and for the treatment of ischemic disease, and process for their preparation” (FUJISAWA PHARMACEUTICAL CO., LTD., priority 1987, dated 1989).

Key:
male ddY mice = assay: Test 4: foot edema after occlusion of the right leg with a rubber band and release in mice; format: in vivo; conditions: 20 min occlusion, 20 min after cutting the band
Description: Five male ddY mice weighing 27-32 g were used for each group. After test compound was administered intravenously, the right leg was occluded by binding 10 times a rubber band (diameter : 42 mm) round it. After 20 minutes later, the rubber band was cut and thickness of foot pad was measured by a dial gage immediately and 20 minutes after cutting the band. The difference of these two values was regarded as edema.

Male SD rats [1] = assay: Test 2: left coronary artery occlusion (5 min) and reperfusion (10 min) in anesthetized rats, incidence of VT, VF and mortality; format: in vivo; conditions: 10 min before occlusion
Description: Male SD rats weighing 270-340 g were anesthetized with sodium pentobarbital. The chest was opened, and then a thread was placed around the left coronary artery near the origin. Both ends of the thread were passed through a small plastic tube. After standing for 5 minutes, test compound was administered intravenously. After 10 minutes, the left coronary artery was occluded for 5 minutes by pulling the thread and pressing the plastic tube to the artery and then reperfusion was achieved by releasing the occlusion for 10 minutes. Electrocardiograms were recorded and analyzed for checking inhibitory rate of incidence of ventricular tachycardia (VT) and ventricular fibrillation (VF) in comparison with control group, and inhibitory rate of mortality as compared with control group was also calculated. 11-18 rats were used for each test group.

Male SD rats [2] = assay: Test 3: myocardial infarction induced by DL-isoproterenol hydrochloride in rats, mortality and myocardial ATP content; format: in vivo; conditions: dose 1.0 mg/kg intraperitoneally, DL-isoproterenol hydrochloride 120 mg/kg subcutaneously
Description: Ten male SD rats weighing 140-170 g were used for each group. Test compound was administered intraperitoneally, and then myocardial infarction was induced by administering DL-isoproterenol hydrochloride (120 mg/kg) subcutaneously. After 24 hours, mortality was examined. Survival rats were anesthetized and their hearts were taken out and frozen immediately for the measurement of myocardial ATP content.

[3] = test system: heart isolated from male guinea-pig; assay: Test 1: isolated guinea-pig heart perfused in the Langendorff mode, global ischemia (35 min) and reperfusion (40 min); conditions: for % change from control Cardiac depression (pre-ischemia) LVSP x HR: 15 min before ischemia; for % change from control recovery of ATP content (% increase): after 35 min ischemia and 40 min reperfusion
Description: The heart was isolated from male guinea-pig weighing 550-650 g and was perfused in the Langendorff mode at 37°C at a constant perfusion pressure of 80 cm H₂O. The perfusion medium was Krebs-Henseleit bicarbonate solution containing 11 mM glucose. The solution was equilibrated with 95% O₂ and 5% CO₂ gas mixture at pH 7.4. A latex balloon was placed in the left ventricular cavity and then left ventricular systolic (LVSP) and diastolic (LVDP) pressure were measured. Heart rate (HR) was triggered by the pulse pressure. Coronary flow was monitored with electromagnetic flow probe placed on the aorta.
The heart was perfused for 45 min. with the perfusion medium and then for 15 min. with the perfusion medium containing the test compound. The heart was then subjected to the global ischemia by stopping the perfusion. After 35 min. of ischemia, the heart was reperfused by the perfusion medium containing no test compound. At the end of 40 min. reperfusion, the cardiac function was monitored. The heart was immidiately frozen for the estimation of ATP content.

[4] = concentration 1 x 10⁻⁵ g/ml in perfusion medium

SMILES | Inhibition (%) of foot edema (male ddY mice; dose 1.0 mg/kg intravenously) | % change from control coronary flow ([3]; concentration 1 x 10⁻⁵ g/ml) | % change from control Cardiac depression (pre-ischemia) LVSP x HR [3, 4] | % change from control recovery of ATP content (% increase) ([3]; concentration 1 x 10⁻⁵ g/ml) | other results
Cc1nc(-c2ccccc2)cc(-c2cccc([N+](=O)[O-])c2)c1C(=O)NCCN1CCOCC1 [(a), 3-(2-Morpholinoethylcarbamoyl)-2-methyl-4-(3-nitrophenyl)-6-phenylpyridine] | 30% | 32.0% | -1.7% | 89.5% | Inhibition (%) of foot edema (male ddY mice; dose 0.1 mg/kg intravenously): 12%; Inhibition (%) of foot edema (male ddY mice; dose 10 mg/kg intravenously): 42%; Inhibition (%) of incidence as compared with control group Mortality (Male SD rats [1]; dose 1.0 mg/kg intravenously): 13.5%; Inhibition (%) of incidence as compared with control group VF (Male SD rats [1]; dose 1.0 mg/kg intravenously): 28.0%; Inhibition (%) of incidence as compared with control group VT (Male SD rats [1]; dose 1.0 mg/kg intravenously): 0%; Inhibition (%) of incidence as compared with control group Mortality (Male SD rats [1]; dose 3.2 mg/kg intravenously): 52.5%; Inhibition (%) of incidence as compared with control group VF (Male SD rats [1]; dose 3.2 mg/kg intravenously): 60.4%; Inhibition (%) of incidence as compared with control group VT (Male SD rats [1]; dose 3.2 mg/kg intravenously): 0%; Inhibition (%) of incidence as compared with control group Mortality (Male SD rats [1]; dose 10 mg/kg intravenously): 78.9%; Inhibition (%) of incidence as compared with control group VF (Male SD rats [1]; dose 10 mg/kg intravenously): 82.4%; Inhibition (%) of incidence as compared with control group VT (Male SD rats [1]; dose 10 mg/kg intravenously): 5.6%; Inhibition (%) of mortality (Male SD rats [2]; after 24 hours, % change as compared with mortality rate in control group): 75%; Recovery (%) of ATP content (Male SD rats [2]; myocardial ATP of surviving rats after 24 hours): 67%; % change from control coronary flow ([3]; concentration 1 x 10⁻⁶ g/ml): -1.6%; % change from control Cardiac depression (pre-ischemia) LVSP x HR ([3]; concentration 1 x 10⁻⁶ g/ml in perfusion medium): 4.1%; % change from control recovery of ATP content (% increase) ([3]; concentration 1 x 10⁻⁶ g/ml): 96.3%
CN1CCN(Cc2nnc(-c3ccccc3)cc2-c2cccc([N+](=O)[O-])c2)CC1 [(b), 3-(4-Methylpiperazin-1-ylmethyl)-4-(3-nitrophenyl)-6-phenylpyridazine] | – | -30.6% | -95.8% | 100.4% | –
Cc1cc(-c2ccccc2)nc(-c2cccc([N+](=O)[O-])c2)c1C(=O)NCCN1CCOCC1 [(c), 4-Methyl-3-(2-morpholinoethylcarbamoyl)-2-(3-nitrophenyl)-6-phenylpyridine] | – | 31.9% | -38.9% | 71.3% | –
Cc1nc(-c2ccccc2)cc(-c2cccc([N+](=O)[O-])c2)c1C(=O)N1CCN(C)CC1 [(d), 2-Methyl-3-(4-methylpiperazin-1-ylcarbonyl)-4-(3-nitrophenyl)-6-phenylpyridine] | 41.5% | 5.0% | -29.7% | 123.6% | –
Cc1nc(-c2ccccc2)cc(-c2cccc([N+](=O)[O-])c2)c1C(=O)NCCN(C)C [(e), 3-(2-Dimethylaminoethylcarbamoyl)-2-methyl-4-(3-nitrophenyl)-6-phenylpyridine] | – | -10.2% | -90.6% | 76.3% | –
Cc1nc(-c2ccccc2)cc(-c2cccc([N+](=O)[O-])c2)c1C(=O)NCCN1CCSCC1.O=C(O)/C=C/C(=O)O [(f), 2-Methyl-4-(3-nitrophenyl)-6-phenyl-3-[2-(4-thiomorpholinyl)ethylcarbamoyl]pyridine fumarate] | 22% | 22.5% | -45.2% | 64.9% | –
Cc1nc(-c2ccccc2)cc(-c2cccc([N+](=O)[O-])c2)c1NC(=O)NCCN(C)C [(g), 3-[3-(2-Dimethylaminoethyl)ureido]-2-methyl-4-(3-nitrophenyl)-6-phenylpyridine] | – | -42.7% | -85.7% | 78.6% | –
